Assay [1] has as its target T1, C-terminal domain (CTD) of human STING (Homo sapiens, UniProt Q86WV6). The experiment in a line: STING binding TR-FRET assay (CisBio Human STING WT Binding Kit). Details: purchased CisBio 64BDSTGPEG
Target sequence in this assay (Q86WV6 135-379 limits assumed): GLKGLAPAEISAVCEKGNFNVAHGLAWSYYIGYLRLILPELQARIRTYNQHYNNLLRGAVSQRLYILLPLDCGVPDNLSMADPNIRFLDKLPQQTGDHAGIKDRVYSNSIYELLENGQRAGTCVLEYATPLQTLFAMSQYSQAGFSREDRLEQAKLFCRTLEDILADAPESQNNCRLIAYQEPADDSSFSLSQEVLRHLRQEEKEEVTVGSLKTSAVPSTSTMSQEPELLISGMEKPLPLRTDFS
The note with it: recombinant human STING with His-tag, D2-labeled active site probe, 60 min at room temperature. The method, then:
STING binding can be determined by a time-resolved FRET assay. For instance, a STING protein having a His-tag can be used. A D2-labeled active site probe can be used to accept 620 nm emission from Anti-HIS-Tb-STING. Increased fluorescence is measured at 665 nm. Molecules that compete for the probe binding site will result in a lower 665 nm signal. The assay can be performed in low-volume white 96-well plates containing 5 µL compounds in an appropriate diluent buffer. Following 60 minutes incubation at room temperature in the dark, fluorescence emission at 665 nm is measured following 330 nm xenon flash excitation. pIC50 values can be determined using a standard four parameter curve fit.
The affinity of molecules to the C-terminal domain (CTD) of human STING was determined using a commercial Human STING WT Binding Kit (CisBio, cat.# 64BDSTGPEG). In this time-resolved FRET assay, a recombinant human STING protein construct with a His-tag was employed. When bound to STING, a D2-labeled active site probe accepts the 620 nm emission from Anti-HIS-Tb-STING and an increase in fluorescence is measured at 665 nm. Molecules that compete for the probe binding site will result in a low 665 nm signal. The assay was run in CisBio low-volume white 96-well plates (catalog# 66PL96005) containing 5 µL compounds in Diluent Buffer (supplied with the CisBio kit). A solution of 1xSTING, 1x Anti-HIS-Tb and 1X D2-probe in TB detection buffer (kit supplied) was added to the plate. Plates were centrifuged for 2 min at 500 rpm, incubated for 60 min at room temperature in the dark, and then fluorescence emission at 665 nm following 330 nm xenon flash excitation on an BioTek synergy H1 multimode reader (Agilent) was measured. The plC50 values were determined using a standard four parameter curve fit in GraphPad Prism.

The target in assay [2] is T1, C-terminal domain (CTD) of human STING. The experiment in a line: STING binding FP assay I (fluorescence polarization competition binding). The note with it: recombinant human STING protein (155-379), 35 nM STING, 4 nM fluorescein-labelled STING ligand (Probe 1), 20 min at room temperature. The arrangement: recombinant human STING protein (155-379). The method, then: The interaction between molecules and the C-terminal domain (CTD) of human STING was evaluated using a competition binding assay. In this assay, recombinant human STING protein (155-379) and a STING binding fluorescent probe were employed. Upon binding of the probe to STING, the rotation of the fluorescent probe is slowed due to the larger molecular size of the protein-bound complex. As a result, emitted light retains its plane of polarization, leading to an increase in fluorescence polarization. Molecules competing for the probe binding site displace the probe, which leads to rapid randomization of the polarization plane of the emitted light and a subsequent decrease in measured fluorescence polarization signal. Change in polarization was measured, allowing a comparative evaluation of the binding affinities of different compounds to the target protein.
The assay was performed in 96-well plates (ThermoFisher, cat.# 237108) containing 100 µl : 10 µL test compound in 10% DMSO and buffer A (150 mM NaCl, 50 mM HEPES pH 7.5, 1 mM DTT) + 90 µL prepared master mix solution of: 4 nM fluorescein-labelled STING ligand (Probe 1; synthesis described above) in buffer A + 0.055% Tween-20 (v/v) and 35 nM STING in buffer A. Post mixing, plates were agitated at 600 rpm and incubated for 20 min at room temperature. Subsequent measurements of the fluorescence polarization signal were made on a BioTek Synergy-H1 plate reader, using a polarization filter; excitation: 485/20 nm, emission: 528/20 nm) with a gain-setting of 75. IC50 values were determined using a standard non-linear regression four-parameter curve fit in Graphpad Prism.
Target sequence in this assay (Q86WV6 155-379): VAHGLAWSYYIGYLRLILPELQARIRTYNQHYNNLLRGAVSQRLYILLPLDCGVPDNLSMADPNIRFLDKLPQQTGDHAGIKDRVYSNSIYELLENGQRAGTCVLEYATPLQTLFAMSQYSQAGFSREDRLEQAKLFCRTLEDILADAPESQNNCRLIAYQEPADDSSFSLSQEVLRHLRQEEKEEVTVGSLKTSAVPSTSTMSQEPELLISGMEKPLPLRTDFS

For another assay, the target named is T2, STING (Homo sapiens, UniProt Q86WV6).
T2 construct: endogenous in cells; host or cells: human skin fibroblasts
T2 sequence (Q86WV6 whole entry): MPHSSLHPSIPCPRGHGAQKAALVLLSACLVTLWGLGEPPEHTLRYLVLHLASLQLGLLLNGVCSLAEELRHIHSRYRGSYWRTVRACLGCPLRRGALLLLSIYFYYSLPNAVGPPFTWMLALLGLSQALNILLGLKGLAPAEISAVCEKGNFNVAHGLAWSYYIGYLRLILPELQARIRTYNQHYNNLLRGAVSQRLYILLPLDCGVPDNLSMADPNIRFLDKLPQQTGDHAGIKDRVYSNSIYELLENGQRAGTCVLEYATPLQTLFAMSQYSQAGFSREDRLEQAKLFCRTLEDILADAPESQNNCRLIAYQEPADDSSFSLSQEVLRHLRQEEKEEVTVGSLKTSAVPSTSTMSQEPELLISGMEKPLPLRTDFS
The experiment in a line: Human FB STING antagonist assay (IFN-a/b release). The format is cell-based. The note with it: Human skin fibroblasts, 2h pre-treatment, 300 nM GSK STING agonist (CAS number: 2138299-34-8) for 20 h, release of IFN-a/b by HEK-Blue IFN-α/β bioassay. On the procedure:
STING antagonist activity can be determined by a human fibroblast antagonist assay. For this, human skin fibroblasts are pre-treated for 2h with a serial dilution of the compound, and are then stimulated for 20 hours with 300 nM STING agonist (e.g. from GSK, CAS number: 2138299-34-8). Supernatants are then harvested and assessed for IFN-a/b release, which indicates STING activation. IFN-a/b concentration in the supernatant is determined, e.g. using an IFN-α/β bioassay. IC50 values are calculated using a non-linear regression fitting, variable slope (4 parameters).
Human skin fibroblasts were pre-treated for 2h with a serial dilution of test compound followed by stimulation with mock or 300 nM GSK STING agonist (CAS number: 2138299-34-8). Supernatants were harvested after 20 h of STING agonist stimulation. Release of IFN-a/b was determined using HEK-Blue IFN-α/β bioassay (Invivogen). Cellular viability was assessed using Alamar Blue HS assay. IC50 values were estimated using a non-linear regression fitting, variable slope (4 parameters) in GraphPad Prism 9.3.1.

The record followed here is EP4534147A1, “STING ANTAGONIST COMPOUNDS” (Sulis Therapeutics ApS, priority 2023, dated 2025).

A value given as a limit tells only on which side of the number the result lay.

As to `CCn1nc(C)cc1C(=O)N=c1n(C)c2cc(C(N)=O)ccc2n1CCC(CCn1c(=NC(=O)c2cc(C)nn2CC)n(C)c2cc(C(N)=O)ccc21)OCC(=O)O` (stereo not shown) [Example 3, (3-{5-Carbamoyl-2-[(1-ethyl-3-methyl-5-pyrazolyl)carbonylimino]-3-methyl-2,3-dihydro-1H-1,3-benzimidazol-1-yl}-1-(2-{5-carbamoyl-2-[(1-ethyl-3-methyl-5-pyrazolyl)carbonylimino]-3-methyl-2,3-dihydro-1H-1,3-benzimidazol-1-yl}ethyl)propoxy)acetic acid], the results for the 50% inhibitory concentration (IC50) in assay [1] and in assay [2] were 0.452 nM and less than 30 nM, respectively.
For `CCn1nc(C)cc1C(=O)N=c1n(C)c2cc(C(N)=O)ccc2n1CCC(CCn1c(=NC(=O)c2cc(C)nn2CC)n(C)c2cc(C(N)=O)ccc21)OCC(=O)NC(C)C` (stereo not shown) [Example 5, 1-{3-[(N-lsopropylcarbamoyl)methoxy]-5-{5-carbamoyl-2-[(1-ethyl-3-methyl-5-pyrazolyl)carbonylimino]-3-methyl-2,3-dihydro-1H-1,3-benzimidazol-1-yl}pentyl}-2-[(1-ethyl-3-methyl-5-pyrazolyl)carbonylimino]-3-methyl-2,3-dihydro-1H-1,3-benzimidazole-5-carboxamide] the same measures were 0.38 nM and less than 30 nM.
With `CCn1nc(C)cc1C(=O)N=c1n(C)c2cc(C(N)=O)ccc2n1CCC(CCn1c(=NC(=O)c2cc(C)nn2CC)n(C)c2cc(C(N)=O)ccc21)OCC(=O)Nc1ccccc1` (stereo not shown) [Example 6, 1-{3-[(N-Phenylcarbamoyl)methoxy]-5-{5-carbamoyl-2-[(1-ethyl-3-methyl-5-pyrazolyl)carbonylimino]-3-methyl-2,3-dihydro-1H-1,3-benzimidazol-1-yl}pentyl}-2-[(1-ethyl-3-methyl-5-pyrazolyl)carbonylimino]-3-methyl-2,3-dihydro-1H-1,3-benzimidazole-5-carboxamide], the results for the IC50 (on STING; in assay [1]; in assay [2]) were 7600 nM, 0.6 nM and less than 30 nM, respectively.
`CCn1nc(C)cc1C(=O)N=c1n(C)c2cc(C(N)=O)ccc2n1CCC(CCn1c(=NC(=O)c2cc(C)nn2CC)n(C)c2cc(C(N)=O)ccc21)OCC(=O)N1CCOCC1` (stereo not shown) [Example 7, 1-(5-{5-Carbamoyl-2-[(1-ethyl-3-methyl-5-pyrazolyl)carbonylimino]-3-methyl-2,3-dihydro-1H-1,3-benzimidazol-1-yl}-3-(2-morpholino-2-oxoethoxy)pentyl)-2-[(1-ethyl-3-methyl-5-pyrazolyl)carbonylimino]-3-methyl-2,3-dihydro-1H-1,3-benzimidazole-5-carboxamide]: the IC50 at STING was 3500 nM; in assay [1] it was 0.267 nM; in assay [2] it was less than 30 nM.
Regarding `CCn1nc(C)cc1C(=O)N=c1n(C)c2cc(C(N)=O)ccc2n1CCC(CCn1c(=NC(=O)c2cc(C)nn2CC)n(C)c2cc(C(N)=O)ccc21)OCC(=O)N1CCc2cc(OC)ccc2C1` (stereo not shown) [Example 9, 1-(5-{5-Carbamoyl-2-[(1-ethyl-3-methyl-5-pyrazolyl)carbonylimino]-3-methyl-2,3-dihydro-1H-1,3-benzimidazol-1-yl}-3-[2-(6-methoxy-1,2,3,4-tetrahydro-2-isoquinolyl)-2-oxoethoxy]pentyl)-2-[(1-ethyl-3-methyl-5-pyrazolyl)carbonylimino]-3-methyl-2,3-dihydro-1H-1 ,3-benzimidazole-5-carboxamide], the IC50 at STING is 13100 nM; in assay [1], 0.665 nM; in assay [2], less than 30 nM.
